According to patent US7863449B2, “Modulators of muscarinic receptors” (Vertex Pharmaceuticals Incorporated, priority 2004, dated 2011):
Structures can show the parent of a compound that is named as a salt.

Tests used:
M4 muscarinic receptor = target: T1, M4 muscarinic receptor (Homo sapiens, UniProt P08173); assay: Functional mobilization of intracellular calcium (FLIPR), M4-CHO cells; type: cell-based; conditions: for Emax: 100% efficacy is the maximum response obtained using Carbachol as a control; for M4 Activity: M4-CHO cells, FLIPR calcium mobilization
T1 construct: expressed in transfected cells; host or cells: CHO (M4-CHO)
T1 sequence (P08173 1-479): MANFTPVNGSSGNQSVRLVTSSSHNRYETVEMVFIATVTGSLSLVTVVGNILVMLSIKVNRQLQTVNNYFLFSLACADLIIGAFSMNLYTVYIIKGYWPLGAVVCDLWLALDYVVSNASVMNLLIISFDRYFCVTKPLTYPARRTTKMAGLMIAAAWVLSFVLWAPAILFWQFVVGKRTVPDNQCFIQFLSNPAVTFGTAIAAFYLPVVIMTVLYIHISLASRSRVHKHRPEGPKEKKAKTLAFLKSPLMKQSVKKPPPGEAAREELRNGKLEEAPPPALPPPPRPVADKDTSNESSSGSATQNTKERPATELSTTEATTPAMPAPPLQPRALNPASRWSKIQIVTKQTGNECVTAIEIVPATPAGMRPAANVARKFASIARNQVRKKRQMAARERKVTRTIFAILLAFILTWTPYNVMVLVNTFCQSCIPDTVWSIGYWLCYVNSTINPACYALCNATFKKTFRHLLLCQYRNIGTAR
Summary of the method: (§1)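 Calcium flux recorded 60 s (ex 488, em 540 nm) in dye-loaded M1- or M4-CHO cells in pH 7.4 buffer with 1 mM probenecid. Inhibition measured against carbachol EC80 after 15 min compound pre-incubation or co-addition; agonism measured by compound addition alone. Final DMSO 0.5%.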

M1 muscarinic receptor = target: T2, M1 muscarinic receptor (Homo sapiens, UniProt P11229); assay: Functional mobilization of intracellular calcium (FLIPR), M1-CHO cells; type: cell-based; conditions: for Emax: 100% efficacy is the maximum response obtained using Carbachol as a control; for M1 Activity: M1-CHO cells, FLIPR calcium mobilization
T2 construct: expressed in transfected cells; host or cells: CHO (M1-CHO)
T2 sequence (P11229 1-460): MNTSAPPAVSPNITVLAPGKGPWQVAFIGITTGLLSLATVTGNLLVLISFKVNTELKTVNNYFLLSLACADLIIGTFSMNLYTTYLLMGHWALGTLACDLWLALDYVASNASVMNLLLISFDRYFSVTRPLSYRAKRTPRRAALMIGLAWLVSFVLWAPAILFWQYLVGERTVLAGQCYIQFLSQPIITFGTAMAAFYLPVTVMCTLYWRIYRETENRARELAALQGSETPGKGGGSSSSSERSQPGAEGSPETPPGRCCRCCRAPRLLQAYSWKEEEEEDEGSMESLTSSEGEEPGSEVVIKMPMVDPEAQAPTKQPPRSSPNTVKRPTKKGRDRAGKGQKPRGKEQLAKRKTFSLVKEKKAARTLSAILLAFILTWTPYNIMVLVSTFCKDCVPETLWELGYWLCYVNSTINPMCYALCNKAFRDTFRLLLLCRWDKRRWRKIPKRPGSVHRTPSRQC
Summary of the method: as §1

Compound	Emax (M4 muscarinic receptor) [%]	M4 Activity (M4 muscarinic receptor)	Emax (M1 muscarinic receptor) [%]	M1 Activity (M1 muscarinic receptor)
CC(=O)N1Cc2ccccc2C2(CCN(Cc3ccccc3F)CC2)C1 [compound 199]	25 to 100	+ (activity was measured to be greater than 5.0 μM)	< 25	+ (activity was measured to be greater than 5.0 μM)
CCOC(=O)N1C2CCC1CC(N1CCC3(CC1)CN(S(=O)(=O)c1sc(NC(C)=O)nc1C)Cc1ccccc13)C2 (stereo not drawn) [compound 200]	25 to 100	+++ (activity was measured to be less than 1.0 μM)	25 to 100	+++ (activity was measured to be less than 1.0 μM)
CCOC(=O)N1C2CCC1CC(N1CCC3(CC1)CN(S(C)(=O)=O)Cc1ccccc13)C2 (stereo not drawn) [compound 201]	25 to 100	+++ (activity was measured to be less than 1.0 μM)	25 to 100	+++ (activity was measured to be less than 1.0 μM)
CCOC(=O)N1CCC(N2CCC3(CC2)CN(C(=O)OC2CCC2)Cc2ccccc23)CC1 [compound 202]	25 to 100	+++ (activity was measured to be less than 1.0 μM)	25 to 100	+++ (activity was measured to be less than 1.0 μM)
CCOC(=O)N1C2CCC1CC(N1CCC3(CC1)CN(C(=O)c1sc(C)nc1C)Cc1ccccc13)C2 (stereo not drawn) [compound 203]	25 to 100	+++ (activity was measured to be less than 1.0 μM)	25 to 100	+++ (activity was measured to be less than 1.0 μM)
CCOC(=O)N1CCC(N2CCC3(CC2)CN(C(=O)N(C)C)Cc2ccccc23)CC1 [compound 204]	25 to 100	+++ (activity was measured to be less than 1.0 μM)	25 to 100	+++ (activity was measured to be less than 1.0 μM)
CCOC(=O)N1C2CCC1CC(N1CCC3(CC1)CN(S(=O)(=O)c1ccc(F)cc1)Cc1ccccc13)C2 (stereo not drawn) [compound 205, Ethyl 3-(2-(4-fluorophenylsulfonyl)-2,3-dihydro-1H-spiro-[isoquinoline-4,4′-piperidine]-1′-yl)-8-azabicyclo[3.2.1]-octane-8-carboxylate hydrochloride]	25 to 100	+++ (activity was measured to be less than 1.0 μM)	25 to 100	+++ (activity was measured to be less than 1.0 μM)
COC(=O)N1Cc2ccccc2C2(CCN(C3CC4CCC(C3)N4C(=O)OC(C)C)CC2)C1 (stereo not drawn) [compound 206]	25 to 100	+++ (activity was measured to be less than 1.0 μM)	25 to 100	+++ (activity was measured to be less than 1.0 μM)
COCCOC(=O)N1CCC(CN2CCC3(CC2)CN(C(C)=O)Cc2ccccc23)CC1 [compound 207]	25 to 100	++ (activity was measured to be from 1.0 μM to 5.0 μM)	25 to 100	+ (activity was measured to be greater than 5.0 μM)
CCOC(=O)N1CCC(CN2CCC3(CC2)CN(C(=O)C2CC2)Cc2ccccc23)CC1 [compound 208]	25 to 100	+++ (activity was measured to be less than 1.0 μM)	25 to 100	+++ (activity was measured to be less than 1.0 μM)
CCOC(=O)N1CCC(N2CCC3(CC2)CN(C(=O)CC(F)(F)F)Cc2ccccc23)CC1 [compound 209]	25 to 100	+++ (activity was measured to be less than 1.0 μM)	25 to 100	+++ (activity was measured to be less than 1.0 μM)
Cc1cc(C(=O)N2Cc3ccccc3C3(CCN(C4CC5CCC(C4)N5C(=O)O[C@@H]4CCOC4)CC3)C2)nn1C (stereo partly drawn) [compound 210]	25 to 100	+++ (activity was measured to be less than 1.0 μM)	25 to 100	+++ (activity was measured to be less than 1.0 μM)
CCOC(=O)N1CCC(N2CCC3(CC2)CN(C(=O)N2CCCCC2)Cc2ccccc23)CC1 [compound 211]	< 25	+ (activity was measured to be greater than 5.0 μM)	25 to 100	+++ (activity was measured to be less than 1.0 μM)
O=C(OC1CCC1)N1Cc2ccccc2C2(CCN(C3CC4CCC(C3)N4C(=O)O[C@H]3CCOC3)CC2)C1 (stereo partly drawn) [compound 212]		+++ (activity was measured to be less than 1.0 μM)		+++ (activity was measured to be less than 1.0 μM)
CCOC(=O)N1C2CCC1CC(N1CCC3(CC1)CN(C(=O)c1cnoc1C)Cc1ccccc13)C2 (stereo not drawn) [compound 213]	25 to 100	+++ (activity was measured to be less than 1.0 μM)	25 to 100	+++ (activity was measured to be less than 1.0 μM)
CCOC(=O)N1CCC(CN2CCC3(CC2)CN(C(=O)c2ccno2)Cc2ccccc23)CC1 [compound 214]	25 to 100	+++ (activity was measured to be less than 1.0 μM)	25 to 100	+++ (activity was measured to be less than 1.0 μM)
CC(=O)N1Cc2ccccc2C2(CCN(C3CCOCC3)CC2)C1 [compound 215]	25 to 100	+ (activity was measured to be greater than 5.0 μM)	25 to 100	++ (activity was measured to be from 1.0 μM to 5.0 μM)
CCOC(=O)N1CC[C@@H](CN2CCC3(CC2)CN(C(C)=O)Cc2ccccc23)C1 [compound 216]	25 to 100	+++ (activity was measured to be less than 1.0 μM)	25 to 100	+++ (activity was measured to be less than 1.0 μM)
CC(=O)N1Cc2ccccc2C2(CCN(Cc3cc4ccccc4o3)CC2)C1 [compound 217]	< 25	+ (activity was measured to be greater than 5.0 μM)	< 25	+ (activity was measured to be greater than 5.0 μM)
CCOC(=O)N1C2CCC1CC(N1CCC3(CC1)CN(S(=O)(=O)Cc1ccccc1)Cc1ccccc13)C2 (stereo not drawn) [compound 218]	25 to 100	+++ (activity was measured to be less than 1.0 μM)	25 to 100	+++ (activity was measured to be less than 1.0 μM)
CCOC(=O)N1C2CCC1CC(N1CCC3(CC1)CN(C(=O)c1cc(C)n(C)n1)Cc1ccccc13)C2 (stereo not drawn) [compound 219]	25 to 100	+++ (activity was measured to be less than 1.0 μM)	25 to 100	+++ (activity was measured to be less than 1.0 μM)
CCOC(=O)N1C2CCC1CC(N1CCC3(CC1)CN(C(=O)c1snnc1C(C)C)Cc1ccccc13)C2 (stereo not drawn) [compound 220]	25 to 100	+++ (activity was measured to be less than 1.0 μM)	25 to 100	+++ (activity was measured to be less than 1.0 μM)
CCOC(=O)N1CCC(N2CCC3(CC2)CN(C(=O)c2ccccc2)Cc2ccccc23)CC1 [compound 221]	25 to 100	+++ (activity was measured to be less than 1.0 μM)	25 to 100	+++ (activity was measured to be less than 1.0 μM)
CS(=O)(=O)N1Cc2ccccc2C2(CCN(C3CC4CCC(C3)N4C(=O)O[C@@H]3CCOC3)CC2)C1 (stereo partly drawn) [compound 222]	25 to 100	+++ (activity was measured to be less than 1.0 μM)	25 to 100	+++ (activity was measured to be less than 1.0 μM)
Cc1cc(C(=O)N2Cc3ccccc3C3(CCN(C4CC5CCC(C4)N5C(=O)OC4CCC4)CC3)C2)nn1C (stereo not drawn) [compound 223]	25 to 100	+++ (activity was measured to be less than 1.0 μM)	25 to 100	+++ (activity was measured to be less than 1.0 μM)
CCOC(=O)N1C2CCC1CC(N1CCC3(CC1)CN(C(=O)C1CC1)Cc1ccccc13)C2.Cl (stereo not drawn) [compound 224, Ethyl 3-(2-(cyclopropanecarbonyl)-2,3-dihydro-1H-spiro[isoquinoline-4,4′-piperidine]-1′-yl)-8-azabicyclo-[3.2.1]octane-8-carboxylate hydrochloride]	25 to 100	+++ (activity was measured to be less than 1.0 μM)	25 to 100	+++ (activity was measured to be less than 1.0 μM)
